Earlier results as cited in patent EP2335686A1, “An aqueous intravenous nanosuspension with reduced adverse effects” (LEK Pharmaceuticals d.d., priority 2009, dated 2011).
Converted amounts (≈) assume the structure as drawn.

CC(C)c1cccc(C(C)C)c1O [propofol]
aqueous solubility at room temperature: 0.0164 µg/mL (≈ 0.092 µM)
